Test [1] deals with GM-CSFR/JAK2/STAT5 pathway. Briefly: CSTF-1 cell-based reporter assay. Conditions: Homo sapiens; csTF-1 cells, GM-CSF at 2 ng/mL, 4 hours, beta-lactamase reporter; read-out: Cell Assay: CS TF-1 reporter assay IC50. Here is the method: CSTF-1 Cell-Based Reporter Assay
CSTF-1 cells are derived from the human erythroleukemia cell line that is growth dependent on GM-CSF and has an intact GM-CSFR/JAK2/STAT5 pathway. The cell line contains stably integrated beta-lactamase reporter gene under the control of the […] (irf 1) response element recognized by the activated transcription factor STAT5. csTF-1 cells (Invitrogen K1219) were washed with assay media (97% OPTIMEM/0.5% dialyzed FBS/0.1 mM NEAA/1 mM Na pyr/P/S) and seeded in the same media at 5×10^5 cell/mL in T150 flask. After 16 hour incubation, cells were seeded at 2×10^5 cell/well in 50 μl volume, into Costar, clear bottom, 96-well assay plates. Serial dilutions of compounds were added to the plates with final DMSO concentration at 0.5% and GM-CSF at 2 ng/mL and the plates were then incubated at 30° C. and 5% CO2 for 4 hours. The plates were brought to room temperature before adding Substrate Mixture according to manufacturer's protocol (Invitrogen, Catalog #K1085). The assay plates containing the substrate mixture were incubated in the dark at room temperature for 2 hours. Blue and green fluorescence was measured with excitation at 409 nm and emission at 460 nm (for blue) and excitation at 409 nm and emission at 530 nm (for green) using Spectra Max Gemini EM.

The target in a further test is T1, JAK2 (Homo sapiens, UniProt O60674).
T1 construct: made in house; host or cells: T7 phage display or HEK-293 cells (alternatives)
T1 sequence (O60674 whole entry): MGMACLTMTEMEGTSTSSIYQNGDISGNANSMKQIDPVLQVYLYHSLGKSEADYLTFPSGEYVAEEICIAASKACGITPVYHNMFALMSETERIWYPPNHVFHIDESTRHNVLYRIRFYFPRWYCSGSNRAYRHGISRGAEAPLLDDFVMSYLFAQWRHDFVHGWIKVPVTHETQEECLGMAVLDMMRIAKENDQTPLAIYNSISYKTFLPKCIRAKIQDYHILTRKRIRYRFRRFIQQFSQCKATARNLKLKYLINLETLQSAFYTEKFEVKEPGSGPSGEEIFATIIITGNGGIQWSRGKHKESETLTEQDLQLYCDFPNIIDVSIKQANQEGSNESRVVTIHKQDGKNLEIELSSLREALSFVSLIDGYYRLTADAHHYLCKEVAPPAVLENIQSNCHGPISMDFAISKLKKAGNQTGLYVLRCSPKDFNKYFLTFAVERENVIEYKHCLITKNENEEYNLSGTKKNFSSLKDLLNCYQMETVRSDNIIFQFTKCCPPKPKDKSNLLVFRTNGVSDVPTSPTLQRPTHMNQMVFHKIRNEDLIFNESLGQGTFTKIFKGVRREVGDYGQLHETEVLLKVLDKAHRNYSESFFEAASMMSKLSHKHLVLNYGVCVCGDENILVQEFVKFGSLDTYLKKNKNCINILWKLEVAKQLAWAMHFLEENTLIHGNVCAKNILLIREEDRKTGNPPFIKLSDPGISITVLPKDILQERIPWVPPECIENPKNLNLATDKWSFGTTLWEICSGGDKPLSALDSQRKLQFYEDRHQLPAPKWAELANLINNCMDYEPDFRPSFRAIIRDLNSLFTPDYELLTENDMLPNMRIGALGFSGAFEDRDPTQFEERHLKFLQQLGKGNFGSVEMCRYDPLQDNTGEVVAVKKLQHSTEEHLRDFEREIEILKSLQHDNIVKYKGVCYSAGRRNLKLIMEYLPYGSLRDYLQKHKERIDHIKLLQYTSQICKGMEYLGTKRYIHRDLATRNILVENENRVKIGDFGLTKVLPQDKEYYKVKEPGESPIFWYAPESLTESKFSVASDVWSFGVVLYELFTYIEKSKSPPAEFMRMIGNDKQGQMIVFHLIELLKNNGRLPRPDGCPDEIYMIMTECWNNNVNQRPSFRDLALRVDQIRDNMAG
Nature of the test: Competition binding assay to determine binding constants (Kd), JAK2. From the text: (§1) Competition Binding Assay to Determine Binding Constants (Kd) of the Compounds Against JAK Kinases
(§2) Competition binding assays used herein were developed, validated and performed as described in Fabian et al., Nature Biotechnology 2005, 23, 329-336. Kinases were produced as fusions to T7 phage (See, Fabian et al. or WO04/015142) or alternatively, the kinases were expressed in HEK-293 cells and subsequently tagged with DNA for PCR detection (See, WO08/005,310). For the binding assays, streptavidin-coated magnetic beads were treated with biotinylated affinity ligands for 30 min at rt to generate affinity resins. The liganded beads were blocked with excess biotin and washed with blocking buffer (SeaBlock (Pierce), 1% BSA, 0.05% Tween 20, 1 mM DTT) to remove unbound ligand and to reduce non-specific binding. Binding reactions were assembled by combining kinase, liganded affinity beads, and test compounds in 1× binding buffer (20% SeaBlock, 0.17×PBS, 0.05% Tween 20, 6 mM DTT). Test compounds were prepared as 100× stocks in DMSO and rapidly diluted into the aqueous environment. DMSO was added to control assays lacking a test compound. Primary screen interactions were performed in polypropylene 384-well plates in a final volume of 34 μL, while Kd determinations were performed in polystyrene 96-well plates in a final volume of 135 μL. The assay plates were incubated at room temperature with shaking for 1 hour, long enough for binding reactions to reach equilibrium, and the affinity beads were washed extensively with wash buffer (1×PBS, 0.05% Tween 20) to remove unbound protein. The beads were then resuspended in elution buffer (1×PBS, 0.05% Tween 20, 2 μM non-biotinylated affinity ligand) and incubated at room temperature with shaking for 30 min. The kinase concentration in the eluates was measured by quantitative PCR. Each kinase was tested individually against each compound. Kds were determined using eleven serial threefold dilutions. A selectivity score, which is a quantitative measure of selectivity of a compound against a panel of enzymes, may be calculated for a compound by dividing the number of enzymes for which a compound meets a set criteria, (for example, a binding constant of 100 nM or less), by the total number of enzymes tested.

The next test deals with T2, JAK3 (Homo sapiens, UniProt P52333).
T2 construct: made in house; host or cells: T7 phage display or HEK-293 cells (alternatives)
T2 sequence (P52333 1-1124): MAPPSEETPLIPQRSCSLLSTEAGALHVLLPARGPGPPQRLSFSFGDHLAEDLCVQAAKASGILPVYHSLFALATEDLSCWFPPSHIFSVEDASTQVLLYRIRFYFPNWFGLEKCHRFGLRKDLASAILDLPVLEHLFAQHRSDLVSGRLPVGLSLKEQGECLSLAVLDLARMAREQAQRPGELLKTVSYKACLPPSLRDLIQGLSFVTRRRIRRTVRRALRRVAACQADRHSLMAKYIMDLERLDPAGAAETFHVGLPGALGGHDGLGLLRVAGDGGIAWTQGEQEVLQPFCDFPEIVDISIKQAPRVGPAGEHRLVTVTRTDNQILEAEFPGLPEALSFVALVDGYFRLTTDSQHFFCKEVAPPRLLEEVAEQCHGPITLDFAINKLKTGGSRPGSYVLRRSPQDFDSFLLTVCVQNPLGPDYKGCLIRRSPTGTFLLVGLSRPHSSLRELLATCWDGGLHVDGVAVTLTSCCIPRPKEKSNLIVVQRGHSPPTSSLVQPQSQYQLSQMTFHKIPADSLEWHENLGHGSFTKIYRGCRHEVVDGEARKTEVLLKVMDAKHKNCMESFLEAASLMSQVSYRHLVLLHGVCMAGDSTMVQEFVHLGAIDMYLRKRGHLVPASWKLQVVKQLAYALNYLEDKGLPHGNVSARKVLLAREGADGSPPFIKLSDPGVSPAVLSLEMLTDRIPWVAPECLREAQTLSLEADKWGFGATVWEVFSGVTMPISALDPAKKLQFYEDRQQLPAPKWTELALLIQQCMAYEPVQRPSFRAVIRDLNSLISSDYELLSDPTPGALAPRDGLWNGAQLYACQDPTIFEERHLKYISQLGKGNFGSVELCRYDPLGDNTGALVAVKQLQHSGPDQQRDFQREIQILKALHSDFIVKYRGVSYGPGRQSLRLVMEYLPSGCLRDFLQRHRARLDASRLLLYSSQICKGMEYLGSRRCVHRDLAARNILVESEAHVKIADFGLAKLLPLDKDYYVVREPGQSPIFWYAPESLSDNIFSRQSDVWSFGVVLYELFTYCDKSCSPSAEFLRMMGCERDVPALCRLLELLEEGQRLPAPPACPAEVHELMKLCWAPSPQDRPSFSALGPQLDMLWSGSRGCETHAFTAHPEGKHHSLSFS
Briefly: Competition binding assay to determine binding constants (Kd), JAK3.
Description: as §1, §2

The target in a further test is T3, TYK2 (Homo sapiens, UniProt P29597).
T3 construct: made in house; host or cells: T7 phage display or HEK-293 cells (alternatives)
T3 sequence (P29597 whole entry): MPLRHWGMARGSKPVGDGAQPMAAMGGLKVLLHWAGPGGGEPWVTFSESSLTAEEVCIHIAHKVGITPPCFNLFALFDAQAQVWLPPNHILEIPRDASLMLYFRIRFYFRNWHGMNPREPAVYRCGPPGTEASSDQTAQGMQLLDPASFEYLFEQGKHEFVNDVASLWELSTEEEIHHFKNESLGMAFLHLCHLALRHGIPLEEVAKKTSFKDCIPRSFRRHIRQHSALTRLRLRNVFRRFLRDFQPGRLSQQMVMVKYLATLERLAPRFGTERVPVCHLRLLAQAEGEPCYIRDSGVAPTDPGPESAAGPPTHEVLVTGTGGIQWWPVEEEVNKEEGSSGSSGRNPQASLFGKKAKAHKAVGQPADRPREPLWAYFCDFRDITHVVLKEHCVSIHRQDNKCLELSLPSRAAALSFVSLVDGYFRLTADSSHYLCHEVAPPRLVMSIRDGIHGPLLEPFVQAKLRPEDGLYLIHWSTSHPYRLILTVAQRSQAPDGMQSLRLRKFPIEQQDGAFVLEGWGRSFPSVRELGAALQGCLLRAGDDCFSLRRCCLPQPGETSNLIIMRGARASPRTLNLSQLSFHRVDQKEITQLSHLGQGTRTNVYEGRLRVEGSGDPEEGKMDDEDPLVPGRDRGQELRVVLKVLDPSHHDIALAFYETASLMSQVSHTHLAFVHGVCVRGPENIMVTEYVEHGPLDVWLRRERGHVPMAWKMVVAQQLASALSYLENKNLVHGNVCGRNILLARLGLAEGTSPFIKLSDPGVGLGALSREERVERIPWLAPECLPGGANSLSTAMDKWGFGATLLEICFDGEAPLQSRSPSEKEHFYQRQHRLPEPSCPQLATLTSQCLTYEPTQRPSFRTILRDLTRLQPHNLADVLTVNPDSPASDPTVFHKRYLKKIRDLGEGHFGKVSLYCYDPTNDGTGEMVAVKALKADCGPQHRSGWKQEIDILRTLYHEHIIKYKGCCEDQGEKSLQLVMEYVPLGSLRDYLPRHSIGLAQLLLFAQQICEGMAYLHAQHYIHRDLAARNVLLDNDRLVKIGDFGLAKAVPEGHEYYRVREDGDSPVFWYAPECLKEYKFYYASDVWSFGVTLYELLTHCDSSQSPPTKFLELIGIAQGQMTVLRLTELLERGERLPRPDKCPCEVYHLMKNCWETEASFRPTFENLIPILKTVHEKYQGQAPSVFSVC
Nature of the test: Competition binding assay to determine binding constants (Kd), TYK2.
Description: as §1, §2

One may read the IC50 as the concentration that gives 50% inhibition. One may read the Kd as the concentration at which binding is half-saturated.

Take `Cc1cc(Nc2nc(S(=O)(=O)c3ccc(F)cc3)nc3c2cnn3C(C)(C)C)n[nH]1` [Example 25, 1-tert-butyl-6-(4-fluorophenylsulfonyl)-N-(5-methyl-1H-pyrazol-3-yl)-1H-pyrazolo[3,4-d]pyrimidin-4-amine]: the IC50 in test [1] was in the range of 100 to 500 nM. Besides, the dissociation constant (Kd) at JAK2 was 1 to 10 nM; on JAK3 it was greater than 100 nM; on TYK2, no more than 10 nM.
The corresponding values for `Cc1cc(Nc2nc(C(F)(F)c3ccc(F)cc3)nc3c2cnn3C)n[nH]1` [Example 26, 6-(difluoro(4-fluorophenyl)methyl)-1-methyl-N-(5-methyl-1H-pyrazol-3-yl)-1H-pyrazolo[3,4-d]pyrimidin-4-amine] are 100 to 500 nM, no more than 1 nM, 10 to 100 nM and no more than 10 nM.
For `Cc1cc(Nc2nc(S(=O)(=O)c3ccc(F)cc3)nc3[nH]ncc23)n[nH]1` [Example 27, 6-(4-fluorophenylsulfonyl)-N-(5-methyl-1H-pyrazol-3-yl)-1H-pyrazolo[3,4-d]pyrimidin-4-amine], in that order: 100 to 500 nM, no more than 1 nM, 10 to 100 nM and no more than 10 nM.
For `Cc1cc(Nc2nc(S(=O)(=O)c3ccc(F)cc3)nc3c2cnn3C2CCOCC2)n[nH]1` [Example 28, 6-(4-fluorophenylsulfonyl)-N-(5-methyl-1H-pyrazol-3-yl)-1-(tetrahydro-2H-pyran-4-yl)-1H-pyrazolo[3,4-d]pyrimidin-4-amine], in that order: 100 to 500 nM, no more than 1 nM, 10 to 100 nM and no more than 10 nM.
Take `Cc1cc(Nc2nc(S(=O)(=O)c3ccc(F)cc3)nc3c2cnn3CCN2CCOCC2)n[nH]1` [Example 29, 6-(4-fluorophenylsulfonyl)-N-(5-methyl-1H-pyrazol-3-yl)-1-(2-morpholinoethyl)-1H-pyrazolo[3,4-d]pyrimidin-4-amine]: in test [1], the IC50 lay within 100 to 500 nM. Also, the Kd on JAK2 was no more than 1 nM; at JAK3 it was 10 to 100 nM; at TYK2, no more than 10 nM.
The corresponding values for `Cc1cc(Nc2nc(C(F)(F)c3ccc(F)cc3)nc3[nH]ncc23)n[nH]1` [Example 30, 6-(difluoro(4-fluorophenyl)methyl)-N-(5-methyl-1H-pyrazol-3-yl)-1H-pyrazolo[3,4-d]pyrimidin-4-amine] are no more than 100 nM, no more than 1 nM, 10 to 100 nM and no more than 10 nM.
The corresponding values for `Cc1cc(Nc2nc(S(=O)(=O)c3ccc(F)cc3)nc3c2cnn3-c2ccccc2)n[nH]1` [Example 31, 6-(4-fluorophenylsulfonyl)-N-(5-methyl-1H-pyrazol-3-yl)-1-phenyl-1H-pyrazolo[3,4-d]pyrimidin-4-amine] are greater than 500 nM, 1 to 10 nM, greater than 100 nM and 10 to 100 nM.
For `Cc1cc(Nc2nc(C(F)(F)c3ccc(F)cc3)nc3c2cnn3CCN2CCOCC2)n[nH]1` [Example 32, 6-(difluoro(4-fluorophenyl)methyl)-N-(5-methyl-1H-pyrazol-3-yl)-1-(2-morpholinoethyl)-1H-pyrazolo[3,4-d]pyrimidin-4-amine], in that order: 100 to 500 nM, 1 to 10 nM, 10 to 100 nM and no more than 10 nM.
Consider `C=Cn1ncc2c(Nc3cc(C)[nH]n3)nc(C(F)(F)c3ccc(F)cc3)nc21` [Example 33, 6-(difluoro(4-fluorophenyl)methyl)-N-(5-methyl-1H-pyrazol-3-yl)-1-vinyl-1H-pyrazolo[3,4-d]pyrimidin-4-amine], for which, in test [1], the half-inhibitory concentration (IC50) was 100 to 500 nM. The Kd was in the range of 1 to 10 nM on JAK2, 10 to 100 nM at JAK3 and 10 to 100 nM on TYK2.
As to `Cc1cc(Nc2nc(C(F)(F)c3ccc(F)cn3)nc3c2cnn3C)n[nH]1` [Example 34, 6-(difluoro(5-fluoropyridin-2-yl)methyl)-1-methyl-N-(5-methyl-1H-pyrazol-3-yl)-1H-pyrazolo[3,4-d]pyrimidin-4-amine], the half-maximal inhibitory concentration (IC50) in test [1] was 100 to 500 nM. Further, the results for the Kd on JAK2, at JAK3 and on TYK2 were no more than 1 nM, 10 to 100 nM and no more than 10 nM, respectively.
The corresponding values for `CSc1nc2nc(C(F)(F)c3ccc(F)cc3)nc(Nc3cc(C)[nH]n3)c2s1` [Example 35, 5-(difluoro(4-fluorophenyl)methyl)-N-(5-methyl-1H-pyrazol-3-yl)-2-(methylthio)thiazolo[4,5-d]pyrimidin-7-amine] are 100 to 500 nM, 1 to 10 nM, 10 to 100 nM and no more than 10 nM.
The corresponding values for `Cc1cc(Nc2nc(C(F)(F)c3ccc(F)cc3)nc3nc(N4CCCC4)sc23)n[nH]1` [Example 36, 5-(difluoro(4-fluorophenyl)methyl)-N-(5-methyl-1H-pyrazol-3-yl)-2-(pyrrolidin-1-yl)thiazolo[4,5-d]pyrimidin-7-amine] are 100 to 500 nM, no more than 1 nM, 10 to 100 nM and no more than 10 nM.
For `Cc1cc(Nc2nc(C(F)(F)c3ccc(F)cc3)nc3nc(N4CCOCC4)sc23)n[nH]1` [Example 37, 5-(difluoro(4-fluorophenyl)methyl)-N-(5-methyl-1H-pyrazol-3-yl)-2-morpholinothiazolo[4,5-d]pyrimidin-7-amine], in that order: 100 to 500 nM, no more than 1 nM, no more than 10 nM and no more than 10 nM.
Take `Cc1cc(Nc2nc(C(F)(F)c3ccc(F)cc3)nc3nc(N4CCN(C)CC4)sc23)n[nH]1` [Example 38, 5-(difluoro(4-fluorophenyl)methyl)-N-(5-methyl-1H-pyrazol-3-yl)-2-(4-methylpiperazin-1-yl)thiazolo[4,5-d]pyrimidin-7-amine]: the IC50 in test [1] is no more than 100 nM. Besides, the Kd on JAK2 is 1 to 10 nM; at JAK3, no more than 10 nM; at TYK2, no more than 10 nM.

Values taken from patent US20130303533A1, “AZOLOPYRIDINE AND AZOLOPYRIMIDINE COMPOUNDS AND METHODS OF USE THEREOF” (AMBIT BIOSCIENCES CORPORATION, priority 2010, published 2013).
